Source: the supplement of paper PMC9663587

Legend:
[1] = compound: CCc1cnn2c(NCc3ccc[n+]([O-])c3)cc(N3CCCC[C@H]3CCO)nc12; test: increase in dead-cell fraction, 72 h; higher = more death;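 note: breast cancer cell lines in 384-well plates, stained with Hoechst plus LIVE/DEAD far red dye and imaged, cells above an LDR intensity threshold counted dead, Hoechst-negative corpses included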
Neratinib/HKI272 = compound: CCOc1cc2ncc(C#N)c(Nc3ccc(OCc4ccccn4)c(Cl)c3)c2cc1NC(=O)/C=C/CN(C)C [Neratinib/HKI272]; test: as above
[2] = compound: CCN1CCN(Cc2ccc(Nc3ncc(F)c(-c4cc(F)c5nc(C)n(C(C)C)c5c4)n3)nc2)CC1; test: as above
[3] = compound: CC(=O)c1c(C)c2cnc(Nc3ccc(N4CCNCC4)cn3)nc2n(C2CCCC2)c1=O; test: as above
Doxorubicin = compound: COc1cccc2c1C(=O)c1c(O)c3c(c(O)c1C2=O)C[C@@](O)(C(=O)CO)C[C@@H]3O[C@H]1C[C@H](N)[C@H](O)[C@H](C)O1 [Doxorubicin]
[4] = compound: CCc1cnn2c(NCc3ccc[n+]([O-])c3)cc(N3CCCC[C@H]3CCO)nc12
[5] = compound: Cc1nn(C)c(COc2ccc(N3CCN(S(=O)(=O)N(C)C)CC3)cc2)c1-c1cccc2c(CCCOc3cccc4ccccc34)c(C(=O)O)n(CCN3CCOCC3)c12
Pictilisib/GDC0941 = compound: CS(=O)(=O)N1CCN(Cc2cc3nc(-c4cccc5[nH]ncc45)nc(N4CCOCC4)c3s2)CC1 [Pictilisib/GDC0941]
Ceritinib/LDK378 = compound: Cc1cc(Nc2ncc(Cl)c(Nc3ccccc3S(=O)(=O)C(C)C)n2)c(OC(C)C)cc1C1CCNCC1 [Ceritinib/LDK378]
THZ531 = compound: CN(C)C/C=C/C(=O)Nc1ccc(C(=O)N2CCC[C@@H](Nc3ncc(Cl)c(-c4c[nH]c5ccccc45)n3)C2)cc1 [THZ531]; test: increase in dead-cell fraction, 72 h; higher = more death;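 note: breast cancer cell lines in 384-well plates, stained with Hoechst plus LIVE/DEAD far red dye and imaged, cells above an LDR intensity threshold counted dead, Hoechst-negative corpses included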
LEE011/Ribociclib [6] = compound: T1, CN(C)C(=O)c1cc2cnc(Nc3ccc(N4CCNCC4)cn3)nc2n1C1CCCC1 [LEE011/Ribociclib]; test: as above
THZ1 = compound: CN(C)C/C=C/C(=O)Nc1ccc(C(=O)Nc2cccc(Nc3ncc(Cl)c(-c4c[nH]c5ccccc45)n3)c2)cc1 [THZ1]; test: as above
YKL-5-124 = compound: C=CC(=O)Nc1ccc(C(=O)Nc2[nH]nc3c2CN(C(=O)N[C@H](CN(C)C)c2ccccc2)C3(C)C)cc1 [YKL-5-124]; test: as above
Flavopiridol = compound: CN1CC[C@H](c2c(O)cc(O)c3c(=O)cc(-c4ccccc4Cl)oc23)[C@H](O)C1 [Flavopiridol]; test: as above
BSJ-03-123 = compound: CC(=O)c1c(C)c2cnc(Nc3ccc(N4CCN(CCOCCOCCOCCNC(=O)COc5cccc6c5C(=O)N(C5CCC(=O)NC5=O)C6=O)CC4)cn3)nc2n(C2CCCC2)c1=O [BSJ-03-123]; test: as above
LEE011/Ribociclib [7] = compound: T1, LEE011/Ribociclib
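Throughout, for GR50, 72 h: breast cancer and non-malignant breast epithelial cell lines, Deep Dye Drop or Dye Drop imaging, nine half-log doses, GR normalized to time-zero plates and DMSO-only controls.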

## HCC1500
[1]; 0.0001 µM
  increase in dead-cell fraction: 0.0119
[1]; 0.0003162 µM
  increase in dead-cell fraction: -0.0049
[1]; 0.001 µM
  increase in dead-cell fraction: 0.0055
[1]; 0.003162 µM
  increase in dead-cell fraction: 0.0001
[1]; 0.01 µM
  increase in dead-cell fraction: 0.0467
[1]; 0.03162 µM
  increase in dead-cell fraction: 0.285
[1]; 0.1 µM
  increase in dead-cell fraction: 0.499
[1]; 0.3162 µM
  increase in dead-cell fraction: 0.456
[1]; 1 µM
  increase in dead-cell fraction: 0.476
Neratinib/HKI272; 0.0003162 µM
  increase in dead-cell fraction: 0.0116
Neratinib/HKI272; 0.001 µM
  increase in dead-cell fraction: -0.0067
Neratinib/HKI272; 0.003162 µM
  increase in dead-cell fraction: 0.017
Neratinib/HKI272; 0.01 µM
  increase in dead-cell fraction: -0.0012
Neratinib/HKI272; 0.03162 µM
  increase in dead-cell fraction: 0.0316
Neratinib/HKI272; 0.1 µM
  increase in dead-cell fraction: 0.0224
Neratinib/HKI272; 0.3162 µM
  increase in dead-cell fraction: 0.0504
Neratinib/HKI272; 1 µM
  increase in dead-cell fraction: 0.0834
Neratinib/HKI272; 3.162 µM
  increase in dead-cell fraction: 0.331
[2]; 0.001 µM
  increase in dead-cell fraction: -0.0021
[2]; 0.003162 µM
  increase in dead-cell fraction: -0.0174
[2]; 0.01 µM
  increase in dead-cell fraction: -0.0129
[2]; 0.03162 µM
  increase in dead-cell fraction: -0.0035
[2]; 0.1 µM
  increase in dead-cell fraction: -0.0151
[2]; 0.3162 µM
  increase in dead-cell fraction: -0.0201
[2]; 1 µM
  increase in dead-cell fraction: -0.015
[2]; 3.162 µM
  increase in dead-cell fraction: -0.0276
[2]; 10 µM
  increase in dead-cell fraction: 0.0351
[3]; 0.0003162 µM
  increase in dead-cell fraction: -0.0019
[3]; 0.001 µM
  increase in dead-cell fraction: 0.0086
[3]; 0.003162 µM
  increase in dead-cell fraction: -0.0112
[3]; 0.01 µM
  increase in dead-cell fraction: 0.0091
[3]; 0.03162 µM
  increase in dead-cell fraction: 0.0038
[3]; 0.1 µM
  increase in dead-cell fraction: 0.019
[3]; 0.3162 µM
  increase in dead-cell fraction: 0.0086
[3]; 1 µM
  increase in dead-cell fraction: 0.009
[3]; 3.162 µM
  increase in dead-cell fraction: 0.0027
Doxorubicin
  GR50, 72 h: 0.0163 µM
[4]
  GR50, 72 h: 0.0138 µM
[5]
  GR50, 72 h: > 10 µM
Pictilisib/GDC0941
  GR50, 72 h: 2.26 µM
Ceritinib/LDK378
  GR50, 72 h: 1.41 µM

## MCF12A
THZ531; 0.0001 µM
  increase in dead-cell fraction: 0.0108
THZ531; 0.0003162 µM
  increase in dead-cell fraction: 0.0023
THZ531; 0.001 µM
  increase in dead-cell fraction: -0.0009
THZ531; 0.003162 µM
  increase in dead-cell fraction: 0.0027
THZ531; 0.01 µM
  increase in dead-cell fraction: 0.0039
THZ531; 0.03162 µM
  increase in dead-cell fraction: 0.0089
THZ531; 0.1 µM
  increase in dead-cell fraction: 0.0009
THZ531; 0.3162 µM
  increase in dead-cell fraction: 0.0073
THZ531; 1 µM
  increase in dead-cell fraction: 0.332
LEE011/Ribociclib [6]; 0.001 µM
  increase in dead-cell fraction: 0.0031
LEE011/Ribociclib [6]; 0.003162 µM
  increase in dead-cell fraction: -0.0078
LEE011/Ribociclib [6]; 0.01 µM
  increase in dead-cell fraction: 0.0001
LEE011/Ribociclib [6]; 0.03162 µM
  increase in dead-cell fraction: 0.0156
LEE011/Ribociclib [6]; 0.1 µM
  increase in dead-cell fraction: 0.002
LEE011/Ribociclib [6]; 0.3162 µM
  increase in dead-cell fraction: 0.0029
LEE011/Ribociclib [6]; 1 µM
  increase in dead-cell fraction: 0.0076
LEE011/Ribociclib [6]; 3.162 µM
  increase in dead-cell fraction: 0.0018
LEE011/Ribociclib [6]; 10 µM
  increase in dead-cell fraction: 0.0126
THZ1; 0.0001 µM
  increase in dead-cell fraction: 0
THZ1; 0.0003162 µM
  increase in dead-cell fraction: -0.007
THZ1; 0.001 µM
  increase in dead-cell fraction: 0.0031
THZ1; 0.003162 µM
  increase in dead-cell fraction: 0.0056
THZ1; 0.01 µM
  increase in dead-cell fraction: 0.0015
THZ1; 0.03162 µM
  increase in dead-cell fraction: 0.0071
THZ1; 0.1 µM
  increase in dead-cell fraction: 0.0475
THZ1; 0.3162 µM
  increase in dead-cell fraction: 0.127
THZ1; 1 µM
  increase in dead-cell fraction: 0.697
YKL-5-124; 0.001 µM
  increase in dead-cell fraction: 0.0376
YKL-5-124; 0.003162 µM
  increase in dead-cell fraction: 0.0894
YKL-5-124; 0.01 µM
  increase in dead-cell fraction: 0.136
YKL-5-124; 0.03162 µM
  increase in dead-cell fraction: 0.155
YKL-5-124; 0.1 µM
  increase in dead-cell fraction: 0.184
YKL-5-124; 0.3162 µM
  increase in dead-cell fraction: 0.177
YKL-5-124; 1 µM
  increase in dead-cell fraction: 0.165
YKL-5-124; 3.162 µM
  increase in dead-cell fraction: 0.164
YKL-5-124; 10 µM
  increase in dead-cell fraction: 0.252
Flavopiridol; 0.0001 µM
  increase in dead-cell fraction: 0.0046
Flavopiridol; 0.0003162 µM
  increase in dead-cell fraction: 0.0087
Flavopiridol; 0.001 µM
  increase in dead-cell fraction: 0.0086
Flavopiridol; 0.003162 µM
  increase in dead-cell fraction: 0.0003
Flavopiridol; 0.01 µM
  increase in dead-cell fraction: -0.0016
Flavopiridol; 0.03162 µM
  increase in dead-cell fraction: 0.0044
Flavopiridol; 0.1 µM
  increase in dead-cell fraction: 0.0096
Flavopiridol; 0.3162 µM
  increase in dead-cell fraction: 0.0302
Flavopiridol; 1 µM
  increase in dead-cell fraction: 0.479
[1]; 0.0001 µM
  increase in dead-cell fraction: -0.0058
[1]; 0.0003162 µM
  increase in dead-cell fraction: 0.0036
[1]; 0.001 µM
  increase in dead-cell fraction: 0.0056
[1]; 0.003162 µM
  increase in dead-cell fraction: -0.0029
[1]; 0.01 µM
  increase in dead-cell fraction: 0.0006
[1]; 0.03162 µM
  increase in dead-cell fraction: 0.0291
[1]; 0.1 µM
  increase in dead-cell fraction: 0.541
[1]; 1 µM
  increase in dead-cell fraction: 0.517
BSJ-03-123; 0.001 µM
  increase in dead-cell fraction: -0.0046
BSJ-03-123; 0.003162 µM
  increase in dead-cell fraction: 0.0003
BSJ-03-123; 0.01 µM
  increase in dead-cell fraction: 0.0014
BSJ-03-123; 0.03162 µM
  increase in dead-cell fraction: -0.0002
BSJ-03-123; 0.1 µM
  increase in dead-cell fraction: 0.0054
BSJ-03-123; 0.3162 µM
  increase in dead-cell fraction: 0.0008
BSJ-03-123; 1 µM
  increase in dead-cell fraction: 0.0162
BSJ-03-123; 3.162 µM
  increase in dead-cell fraction: 0.0226
BSJ-03-123; 10 µM
  increase in dead-cell fraction: 0.151
Neratinib/HKI272; 0.0003162 µM
  increase in dead-cell fraction: -0.002
Neratinib/HKI272; 0.001 µM
  increase in dead-cell fraction: 0.0045
Neratinib/HKI272; 0.003162 µM
  increase in dead-cell fraction: 0.0065
Neratinib/HKI272; 0.01 µM
  increase in dead-cell fraction: -0.0012
Neratinib/HKI272; 0.03162 µM
  increase in dead-cell fraction: -0.0009
Neratinib/HKI272; 0.1 µM
  increase in dead-cell fraction: 0.0012
Neratinib/HKI272; 0.3162 µM
  increase in dead-cell fraction: 0.029
Neratinib/HKI272; 1 µM
  increase in dead-cell fraction: 0.0776
Neratinib/HKI272; 3.162 µM
  increase in dead-cell fraction: 0.146
[2]; 0.001 µM
  increase in dead-cell fraction: -0.003
[2]; 0.003162 µM
  increase in dead-cell fraction: 0.0003
[2]; 0.01 µM
  increase in dead-cell fraction: -0.0021
[2]; 0.03162 µM
  increase in dead-cell fraction: 0.0015
[2]; 0.1 µM
  increase in dead-cell fraction: 0.006
[2]; 0.3162 µM
  increase in dead-cell fraction: 0.0113
[2]; 1 µM
  increase in dead-cell fraction: 0.0148
[2]; 3.162 µM
  increase in dead-cell fraction: 0.0231
[2]; 10 µM
  increase in dead-cell fraction: 0.0492
[3]; 0.0003162 µM
  increase in dead-cell fraction: -0.0052
[3]; 0.001 µM
  increase in dead-cell fraction: -0.0036
[3]; 0.003162 µM
  increase in dead-cell fraction: -0.0043
[3]; 0.01 µM
  increase in dead-cell fraction: -0.0067
[3]; 0.03162 µM
  increase in dead-cell fraction: -0.005
[3]; 0.1 µM
  increase in dead-cell fraction: -0.003
[3]; 0.3162 µM
  increase in dead-cell fraction: 0.0031
[3]; 1 µM
  increase in dead-cell fraction: 0.006
[3]; 3.162 µM
  increase in dead-cell fraction: 0.0205
LEE011/Ribociclib [7]
  GR50, 72 h: > 10 µM
Doxorubicin
  GR50, 72 h: 0.0155 µM
[4]
  GR50, 72 h: 0.0371 µM
[5]
  GR50, 72 h: > 10 µM
Pictilisib/GDC0941
  GR50, 72 h: 6.67 µM
Ceritinib/LDK378
  GR50, 72 h: 7.62 µM
